Test results taken from paper PMC11355249, “In Silico Identification and Molecular Mechanism of Novel Tyrosinase Inhibitory Peptides Derived from Nacre of Pinctada martensii” (Marine Drugs, 2024).
Read-outs that look alike come from different tables or passages of the source. Peptide text beside a SMILES is read from it.

What was measured:
B16F10 cells [1] = test: Cell viability, CCK-8 assay; type: cell-based, mouse; conditions: 15–1200 μM, 48 h
Method: The B16F10 cells were obtained from FengHui Biotechnology Co., Ltd. (Hunan, China). B16F10 cell cultures from generations 10–25 were grown in medium (DMEM supplemented with 10% fetal bovine serum, 1% antibiotic–antifungal solution) in a 5% CO2 incubator at 37 °C.
Cell viability was assessed using the Cell Counting Kit-8 (CCK-8) assay. During the logarithmic growth phase, 100 µL of cell suspension was dispensed into 96-well plates, with 3000 cells per well, and the supernatant was removed after incubation at 37 °C for 24 h. Wells containing 100 µL of medium served as blank controls. Determination of viability after 48 h of sample treatment.

[2] = target: T1, tyrosinase (from Mushroom) (Agaricus bisporus, UniProt C7FF04); type: biochemical; conditions: read-out: IC50 (mM), tyrosinase activity
T1 sequence (C7FF04 1-392): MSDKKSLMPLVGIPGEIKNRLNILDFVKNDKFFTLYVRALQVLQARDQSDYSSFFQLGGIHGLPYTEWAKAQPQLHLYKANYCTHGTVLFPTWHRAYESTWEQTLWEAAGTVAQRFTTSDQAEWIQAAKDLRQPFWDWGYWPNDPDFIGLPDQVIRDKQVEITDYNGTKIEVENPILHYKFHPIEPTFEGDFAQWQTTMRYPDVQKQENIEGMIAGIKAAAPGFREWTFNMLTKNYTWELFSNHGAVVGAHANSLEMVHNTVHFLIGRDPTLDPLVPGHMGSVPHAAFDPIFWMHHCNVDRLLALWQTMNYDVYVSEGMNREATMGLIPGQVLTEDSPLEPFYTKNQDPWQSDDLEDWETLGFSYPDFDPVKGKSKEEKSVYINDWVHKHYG
Method: (§1) We followed the method of Yu, with a slight modification. L-tyrosine solution (0.5 mg/mL), sample solution, and PBS buffer were sequentially added into the 96-well plate, thoroughly mixed, and then incubated at 37 °C for 10 min, then 20 μL of tyrosinase solution (500 U/mL) was added into each well, followed by immediate placement into the enzyme marker after the reaction at 37 °C for (10 min ± 5 s). The results were analyzed at 475 nm. DPPH and ABTS free-radical-scavenging capacity assays were conducted using kits from Grace Biotechnology Co., Ltd. (Jiangsu, China).

[3] = target: T1, tyrosinase (from Mushroom); test: Inhibition kinetics, Lineweaver-Burk double inverse plot and secondary plots; type: biochemical; conditions: read-out: inhibition constant on the free enzyme, Ki; substrate L-tyrosine; peptide 0, 0.3, 0.6, 1.2 mM
Excerpt: Based on the observation that the inhibition of tyrosinase by the synthetic peptide AHYYD was reversible, the type of inhibition was further elucidated by constructing a Lineweaver–Burk double inverse plot of the enzymatic reaction rate against the concentration of the substrate (L-tyrosine). In this plot, the intercept with the Y-axis represents 1/Vmax, while the intercept with the X-axis represents −1/Km. […] The slope of the line increased with the rise in synthetic peptide concentration, indicating a mixed type of inhibition. By using the quadratic plotting method, the slopes of the four straight lines in the Lineweaver–Burk double inverse plot were plotted against the synthetic peptide concentration.
Keeping the L-tyrosine concentration constant at 0.5 mg/mL, the concentrations of the synthetic peptide and tyrosinase were varied. The change in the OD475 absorbance value was continuously monitored at 37 °C after mixing. The enzyme concentration is plotted on the horizontal axis, while the rate of absorbance change is plotted on the vertical axis. Under the conditions of varying the peptide concentration and substrate concentration while keeping the tyrosinase solution constant, the reciprocal of the substrate concentration was plotted on the horizontal axis, and the reciprocal of the rate of absorbance change was plotted on the vertical ax.

[4] = tested on: melanin content of B16F10 cells; test: Melanin content determination; type: cell-based, mouse; conditions: B16F10, Kojic acid 350 μM, 48 h
Method: The cell culture stage for melanin content determination was as follows: the cells were washed twice with PBS buffer after 48 h of peptide treatment. Trypsin digestion was performed, and the cells were collected. The […] was removed by centrifugation for 5 min and the precipitate was lysed by dissolving it in 1 mol/L NaOH containing 10% DMSO for 1 h at 80 °C. Subsequently, the cell lysate was centrifuged at 12,000 rpm for 10 min. A total of 200 µL of the supernatant was transferred to a 96-well plate, and the absorbance was measured at 405 nm. The melanin content was then expressed as a percentage of the control group.

B16F10 cells [5] = test: Antioxidant enzyme activity (CAT, GSH-Px, SOD) by kit; type: cell-based, mouse; conditions: B16F10, positive control 350 μM
Method: (§2) The cell culture and treatment methods were the same as those described in Section 3.12. The activities of catalase (CAT), glutathione peroxidase (GSH-Px), and superoxide dismutase (SOD) were determined using the assay kit from Nanjing Jianjian Bioengineering Research Institute (Nanjing, China). The ROS content was determined using the method provided by Biyuntian Bio-Technology Company Limited (Shanghai, China).

[6] = tested on: tyrosinase activity in B16F10 cells; test: Intracellular tyrosinase activity (L-DOPA, 475 nm); type: cell-based, mouse; conditions: B16F10, Kojic acid 350 μM, 48 h
Method: The cells in the logarithmic growth phase were seeded at a density of 2 × 10^5 cells per well in 6-well plates. After 24 h of culture, the supernatant was removed. […] After 48 h of incubation, the cells were lysed, and the cell lysates were centrifuged at 12,000 rpm for 10 min. The reaction mixture consisted of 50 µL of cell lysate supernatant, 50 µL of 1 mg/mL L-DOPA, and 50 µL of PBS buffer. The mixture was incubated at 37 °C for 1 h. The […] formation level was then measured spectrophotometrically at 475 nm. Tyrosinase activity was expressed as a percentage of the blank control.

[7] = ABTS free-radical-scavenging capacity assay (kit); conditions: synthetic peptides
Method: as §1

B16F10 cells [8] = test: Intracellular ROS content; type: cell-based, mouse; conditions: B16F10, 75 μM
Method: as §2

## C[C@H](N)C(=O)N[C@@H](Cc1c[nH]cn1)C(=O)N[C@@H](Cc1ccc(O)cc1)C(=O)N[C@@H](Cc1ccc(O)cc1)C(=O)N[C@@H](CC(=O)O)C(=O)O [AHYYD, Ala-His-Tyr-Tyr-Asp] (H-AHYYD-OH)
B16F10 cells [1]
  viability of B16F10 cells compared to the control group: no significant difference
[2]
  IC50: 2.01 ± 0.088 mM
[3]
  Ki: 601 µM

## CC[C@H](C)[C@H](NC(=O)[C@@H]1CCCN1C(=O)[C@@H](N)CCCCN)C(=O)N[C@@H](Cc1c[nH]c2ccccc12)C(=O)N[C@H](C(=O)O)[C@@H](C)O [KPIWT, Lys-Pro-Ile-Trp-Thr] (H-KPIWT-OH; N-terminus and C-terminus assumed)
[2]; synthetic peptides, Kojic acid positive control
  IC50: > 10 mM

## O=c1cc(CO)occ1O [Kojic acid]
[4]
  reduction of intracellular melanin content: 18.54%
B16F10 cells [5]
  increase of GSH-Px activity: 52.85%
  increase of SOD activity: 68.92%
[6]
  reduction of intracellular tyrosinase activity: 19.51%

## C[C@@H](O)[C@H](N)C(=O)N[C@@H](Cc1ccccc1)C(=O)N[C@@H](CO)C(=O)NCC(=O)N[C@@H](CC(N)=O)C(=O)N[C@@H](Cc1ccc(O)cc1)C(=O)N1CCC[C@H]1C(=O)O [TFSGNYP, Thr-Phe-Ser-Gly-Asn-Tyr-Pro] (H-TFSGNYP-OH)
[7]
  IC50 for ABTS clearance: 278.5 µg/mL
[2]
  IC50: > 5 mM

## CC1=C(/C=C/C(C)=C/C=C/C(C)=C/C(=O)O)C(C)(C)CCC1 [tretinoin]
B16F10 cells [8]
  intracellular ROS levels, % of the untreated group: 65.44%
